Assay results published in article PMC6476306 (Biochemistry, 2017).

Target: T1, S. aureus DnaG primase CTD (Staphylococcus aureus, UniProt P63964)
T1 sequence (P63964 463-605): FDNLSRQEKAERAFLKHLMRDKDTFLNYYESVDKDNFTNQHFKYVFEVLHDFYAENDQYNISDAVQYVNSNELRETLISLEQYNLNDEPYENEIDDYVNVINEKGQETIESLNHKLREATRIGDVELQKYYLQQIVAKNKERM
Assay: 2D 1H-15N HSQC NMR titration
Assay type: binding

| Compound | Kd [mM] |
| --- | --- |
| Nc1nc2c(ncn2COCCO)c(=O)[nH]1 [acycloguanosine] | > 4 |
| Nc1ncnc2c1ncn2[C@@H]1O[C@H](CO)[C@@H](O)[C@H]1O [adenosine] | > 4 |
| O=c1c(O)c(-c2cc(O)c(O)c(O)c2)oc2cc(O)cc(O)c12 [myricetin] | > 4 |
